# Data as given in ChEMBL document CHEMBL2029205 (Bioorg Med Chem Lett, 2012).
# Legend:
# Tyrosinase [1] = target: T1, Tyrosinase (Agaricus bisporus, UniProt O42713); experiment: Inhibition of mushroom tyrosinase using L-DOPA as substrate after 20 mins by spectrophotometry
# T1 sequence (O42713 whole entry): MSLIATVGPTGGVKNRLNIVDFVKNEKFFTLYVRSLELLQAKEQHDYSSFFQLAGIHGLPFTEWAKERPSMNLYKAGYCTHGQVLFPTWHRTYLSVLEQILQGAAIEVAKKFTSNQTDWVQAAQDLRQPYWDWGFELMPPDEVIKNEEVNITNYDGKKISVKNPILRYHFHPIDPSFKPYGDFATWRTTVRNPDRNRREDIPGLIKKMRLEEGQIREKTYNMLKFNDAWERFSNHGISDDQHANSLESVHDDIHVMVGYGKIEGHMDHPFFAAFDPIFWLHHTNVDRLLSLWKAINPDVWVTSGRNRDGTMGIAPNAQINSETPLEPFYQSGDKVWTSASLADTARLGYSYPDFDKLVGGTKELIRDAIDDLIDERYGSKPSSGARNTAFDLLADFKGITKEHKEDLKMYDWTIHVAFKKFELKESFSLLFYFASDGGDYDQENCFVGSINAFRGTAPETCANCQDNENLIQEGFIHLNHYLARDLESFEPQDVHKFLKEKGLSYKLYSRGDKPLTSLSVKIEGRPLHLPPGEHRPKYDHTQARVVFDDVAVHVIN
# cells = conditions: Mus musculus, Melan-a, 96 h
# Description: Cytotoxicity against mouse Melan-a cells after 4 days by crystal voilet method
# Tyrosinase [2] = target: T1, Tyrosinase
# Description: Inhibition of mushroom tyrosinase using L-tyrosine as substrate after 20 mins by spectrophotometry
# in vitro = conditions: mouse, Melan-a cells
# Description: Ratio of IC50 for cytotoxicity against mouse Melan-a cells to IC50 for depigmentation in mouse Melan-a cells
Structure (SMILES),IC50 (Tyrosinase [1]) [µM],IC50 (cells) [µM],IC50 (Tyrosinase [2]) [µM],selectivity ratio (in vitro)
O=C(OCc1cc(=O)c(O)co1)c1ccc(O)cc1,1.8,> 80,2.8,
COc1ccc(C(=O)OCc2cc(=O)c(O)co2)cc1,2.05,> 80,2.03,
O=C(OCc1cc(=O)c(O)co1)c1ccc(O)cc1O,3.61,> 80,3.51,
COc1ccc(C(=O)OCc2cc(=O)c(O)co2)c(O)c1,20.1,> 80,10.6,
COc1ccc(C(=O)OCc2cc(=O)c(O)co2)c(OC)c1,4.8,> 80,3.23,
COc1ccc(C(=O)OCc2cc(=O)c(O)co2)cc1C12CC3CC(CC(C3)C1)C2,> 200,19,> 200,5.55
O=C(OCc1cc(=O)c(O)co1)c1ccc(O)c(C23CC4CC(CC(C4)C2)C3)c1,> 200,27.6,> 200,7.25
O=C(OCc1cc(=O)c(O)co1)c1cc(C23CC4CC(CC(C4)C2)C3)c(O)cc1O,> 200,27.4,> 200,3.41
COc1cc(O)c(C(=O)OCc2cc(=O)c(O)co2)cc1C12CC3CC(CC(C3)C1)C2,> 200,26.8,> 200,3
COc1cc(OC)c(C23CC4CC(CC(C4)C2)C3)cc1C(=O)OCc1cc(=O)c(O)co1,> 200,17.6,> 200,4.39
COc1ccc(C(=O)OCc2cc(=O)c(OC)co2)cc1C12CC3CC(CC(C3)C1)C2,,31.3,,6.54
COc1coc(COC(=O)c2ccc(O)c(C34CC5CC(CC(C5)C3)C4)c2)cc1=O,,23.8,,6.16
Oc1ccc(O)cc1 [HYDROQUINONE],,15,10,3.56
